Assay results: patent US20140329905A1, “HISTONE DEACETYLASE 10-INHIBITOR CO-TREATMENT IN CANCER” (Deutsches Krebsforschungszentrum, priority 2011, published 2014)
Like-named read-outs stand apart in the source and are kept apart here. Peptide text beside a SMILES is read from it. * marks the point of attachment. Cbz = O=C(OCc1ccccc1)*; CH2F = FC*

Assays:
BE(2)-C cells [1] = assay: Caspase-3-like protease (DEVD-ase) activity assay; type: cell-based, human; settings: 6 d after HDAC10 siRNA; z-VAD 20 μM, 3-MA 2 mM
Experimental: Caspase-3-like protease activity assay. Caspase-3-like protease activity was measured with the Caspase-3 Fluorometric Assay (BioVision) according to the manufacturer's protocol modified as described previously (Oehme et al. (2006), op. cit.). For cell death detection adherent as well as floating cells were collected.

BE(2)-C cells [2] = assay: Acridine orange FACS quantification of acidic lysosomes; type: cell-based, human; settings: for accumulation of acidic lysosomes (red fluorescence) by a panel of HDAC inhibitors: FIG. 1B, each inhibitor at its applied concentration (Table 1)
Experimental: For quantification of acidic lysosomes, the amount of green respectively red fluorescence was determined, since the acidification of (auto-)lysosomes causes a shift from green to red fluorescence. […] Therefore, the cytoplasm and nucleolus glow bright green, whereas acidic compartments shine bright red. By comparing the mean red-to-green fluorescence ratio within different cell populations, detection and quantification of the acidic compartment is possible. Cells were stained with phenol red-free medium containing 1 μg/ml acridine orange (Sigma) at 37° C. for 30 min, collected and resuspended in 300 μl phenolred-free medium for FACS analysis.

astrocytes = assay: as above; type: cell-based; settings: FIG. 1D; human astrocytes, compared with neuroblastoma cells
Experimental: For quantification of acidic lysosomes, the amount of green respectively red fluorescence was determined, since the acidification of (auto-)lysosomes causes a shift from green to red fluorescence. Acridine orange accumulates in lysosomal particles and the quenching of its fluorescence correlates with the DpH across the lysosomal membrane (Moriyama, Y, Takano, T and Ohkuma, S, (1982) Acridine orange as a fluorescent probe for lysosomal proton pump. J Biochem 92: 1333-6). Therefore, the cytoplasm and nucleolus glow bright green, whereas acidic compartments shine bright red. By comparing the mean red-to-green fluorescence ratio within different cell populations, detection and quantification of the acidic compartment is possible. Cells were stained with phenol red-free medium containing 1 μg/ml acridine orange (Sigma) at 37° C. for 30 min, collected and resuspended in 300 μl phenolred-free medium for FACS analysis. The green (510-530 nm) and the red (>650 nm) fluorescent emission of living cells, stimulated with blue laser (488 nm), were measured with FACSCalibur (Becton Dickinson, San José, Calif.) and analyzed with CellQuest Pro.

BE(2)-C cells [3] = assay: WST-1 metabolic activity assay; type: cell-based, human
Experimental: (§1) WST-1 Assay. Metabolic activity was determined using the colorimetric WST-1 assay kit from Roche (Mannheim, Germany) as described in the manufacturer's manual.

[4] = system: Neuroblastoma cells, medulloblastoma cells (BE(2)-C, Kelly, IMR32, Med8A); assay: WST-1 metabolic activity assay, tumor cells; type: cell-based, human; settings: FIG. 13E; bufexamac 30 μM 6 d, co-treated with low-dose doxorubicin 72 h before assay
Experimental: as §1

HDAC10 [5] = molecular target: T1, HDAC10 (Homo sapiens, UniProt Q969S8); settings: read-out: IC50 HDAC10 from literature; cited from earlier work
T1 construct: Reaction Biology Corporation
T1 sequence (Q969S8 1-669): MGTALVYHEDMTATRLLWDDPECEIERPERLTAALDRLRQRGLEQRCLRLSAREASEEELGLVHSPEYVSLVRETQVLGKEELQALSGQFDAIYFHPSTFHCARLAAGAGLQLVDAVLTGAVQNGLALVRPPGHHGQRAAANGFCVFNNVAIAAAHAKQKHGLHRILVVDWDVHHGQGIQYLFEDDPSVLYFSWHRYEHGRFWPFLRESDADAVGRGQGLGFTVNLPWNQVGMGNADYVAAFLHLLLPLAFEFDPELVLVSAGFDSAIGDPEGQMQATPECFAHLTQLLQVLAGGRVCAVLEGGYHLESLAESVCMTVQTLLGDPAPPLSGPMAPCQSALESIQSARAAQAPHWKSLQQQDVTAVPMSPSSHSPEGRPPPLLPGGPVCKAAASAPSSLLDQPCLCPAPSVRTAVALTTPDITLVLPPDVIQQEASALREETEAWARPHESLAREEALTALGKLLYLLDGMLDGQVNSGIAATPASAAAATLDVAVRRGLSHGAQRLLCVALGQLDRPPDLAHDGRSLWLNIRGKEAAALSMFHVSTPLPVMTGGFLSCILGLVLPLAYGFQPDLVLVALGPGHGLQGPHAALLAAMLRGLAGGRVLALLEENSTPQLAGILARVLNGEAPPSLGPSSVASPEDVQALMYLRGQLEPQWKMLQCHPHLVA

BE(2)-C cells [6] = assay: ROS detection with CM-H2DCFDA by flow cytometry; type: cell-based, human; settings: for effect on ROS production by HDAC10 targeting: 72 h after HDAC10 siRNA transfection
Experimental: ROS generation was quantified using CM-H2DCFDA (Molecular Probes) according to the manufacturer's instructions. Cells were incubated for 20 min with 5 μM dye and fluorescence intensity was measured with FACSCalibur and analyzed with CellQuest Pro.

Kelly cells = assay: WST-1 metabolic activity assay; type: cell-based, human; settings: NAC on day 4 and 5, measured day 6
Experimental: as §1

HDAC10 [7] = molecular target: T1, HDAC10; assay: In vitro HDAC10 activity assay by Reaction Biology Corporation; type: biochemical; settings: read-out: IC50 HDAC10 from RBC
Text: The inhibitory activity of compounds toward HDAC10 was investigated by Reaction Biology Corporation (Malvern, Pa., USA).

BE(2)-C cells [8] = assay: Cell death by trypan blue staining; type: cell-based, human; settings: FIG. 13A; 0.01, 0.05, 0.1 μg/ml; 24, 48, 72 h; among BE(2)-C, Kelly, IMR32
Experimental: (§2) Viability assay. Trypsinized cells were pooled with corresponding supernatant, centrifuged and resuspended in 1.5 ml cell culture media. Cell viability was measured by automated trypan blue staining with Vi-Cell XR Cell Viability Analyzer from Beckman Coulter (Krefeld, Germany).

IMR32 cells = assay: Cell death by trypan blue staining; type: cell-based, human; settings: FIG. 13A, 0.01, 0.05, 0.1 μg/ml, 24, 48, 72 h, among BE(2)-C, Kelly
Experimental: as §2

BE(2)-C cells [9] = assay: Western blot of p62 protein levels (autophagic flux); type: cell-based, human; settings: FIG. 13C; high-dose doxorubicin 0.5 μg/ml, 48 h
Experimental: Western blot analysis was performed as described previously (Oehme et al. (2009), op. cit.). The following antibodies were used: anti-HDAC10 (Sigma), anti-LC3 (Sigma), anti-HDAC6 (Cell Signaling), anti-p62/SQSTM1 (MLB), anti-Hsc70 (Santa Cruz), anti-FLAG-M2 (Sigma) anti-GAPDH (Millipore), anti-Ac-Lysine (rabbit, Cell Signaling) and anti-β-Actin (clone AC-15, Sigma). β-Actin expression served as loading control. Ratios were calculated with the Bio-1D (Version 12.10a) Software. Protein extracts from primary neuroblastoma tumors from patients with the following characteristics were used: NB#1: […], stage 1, MYCN single copy. NB#2: […], stage 1, MYCN single copy. NB#3: […], stage 4, MYCN single copy. NB#4: […], stage 4, MYCN single copy.

## Cn1cnc(=N)c2[nH]cnc21 [3-MA]
BE(2)-C cells [1]
  effect on HDAC10-knockdown mediated apoptosis (caspase-3 like activity): did not affect the induction of cell death upon targeting of HDAC10

## CO/C1=C\C(C)=C\[C@@H](C)[C@@H](O)[C@@H](C)C/C(C)=C/C=C/[C@H](OC)[C@@H]([C@@H](C)[C@@H](O)[C@H](C)[C@@]2(O)C[C@@H](O)[C@H](C)[C@@H](C(C)C)O2)OC1=O [Bafilomycin A1]
BE(2)-C cells [2]; FIG. 2, co-treatment Baf.A 10 nM with TSA 75 nM
  effect on TSA-induced shift to red fluorescence: inhibited the TSA-induced shift to red fluorescence
BE(2)-C cells [2]; FIG. 4A, Baf. A 10 nM, HDAC10 siRNA
  effect on lysosome acidification induced by HDAC10 knockdown: blocked lysosome acidification induced by HDAC10 knockdown

## CCCCOc1ccc(CC(=O)NO)cc1 [Bufexamac, 2-(4-butoxyphenyl)-N-hydroxyacetamide]
astrocytes
  shift to red fluorescence (acidic lysosomes): very moderate shift to red fluorescence
BE(2)-C cells [3]; BE(2)C cells
  effect of bufexamac in NB cells compared to the knockdown of HDAC10 expression: rather low
BE(2)-C cells [3]; FIG. 9E, bufexamac 100 μM 3 days, co-treated with doxorubicin 0.1 μg/ml 24 h before assay
  metabolic activity (WST-1): strongly reduced metabolic activity
[4]
  metabolic activity (WST-1): significantly decreased metabolic activity
HDAC10 [5]
  IC50: 12.3 µM
BE(2)-C cells [2]; BE(2)-C
  accumulation of acidic lysosomes (red fluorescence) by a panel of HDAC inhibitors: significant increase in red fluorescence

## CCN(CC)CCCC(C)Nc1ccnc2cc(Cl)ccc12 (centres unmarked) [Chloroquine]
BE(2)-C cells [2]; FIG. 2, FIG. 5C, BE(2)-C, chloroquine 25 μM, rapamycin 100 nM
  induction of acidic lysosomes and late endosomes: served as positive controls for the induction of acidic lysosomes and late endosomes

## CC(=O)N(O)CCCCCNC(=O)CCC(=O)N(O)CCCCCNC(=O)CCC(=O)N(O)CCCCCN [DFO]
BE(2)-C cells [6]
  effect on ROS production by HDAC10 targeting: inhibited

## CC(=O)N[C@@H](CS)C(=O)O [NAC]
BE(2)-C cells [3]; BE(2)-C, NAC on day 4 and 5, measured day 6
  viability (metabolic activity) upon HDAC10 knockdown: restored viability of NB cells
Kelly cells
  viability (metabolic activity) upon HDAC10 knockdown: restored viability of NB cells
BE(2)-C cells [6]
  effect on ROS production by HDAC10 targeting: inhibited

## CN(C)Cc1c(C(=O)NCCOc2ccc(C(=O)NO)cc2)oc2ccccc12 [PCI-24781, 3-(dimethylaminomethyl)-N-[2-[4-(hydroxycarbamoyl)-phenoxy]ethyl]-1-benzofuran-2-carboxamide]
BE(2)-C cells [2]; BE(2)-C
  accumulation of acidic lysosomes (red fluorescence) by a panel of HDAC inhibitors: significant increase in red fluorescence

## COc1ccc(Cn2ccc3ccc(C(=O)NO)cc32)cc1 [PCI-34051]
BE(2)-C cells [2]; BE(2)-C
  accumulation of acidic lysosomes (red fluorescence) by a panel of HDAC inhibitors: did not

## Cc1[nH]c2ccccc2c1CCNCc1ccc(/C=C/C(=O)NO)cc1 [Panobinostat (LBH589), (2E)-N-hydroxy-3-[4-({[2-(2-methyl-1H-indol-3-yl)ethyl]amino}methyl)phenyl]acrylamide]
BE(2)-C cells [2]; BE(2)-C
  accumulation of acidic lysosomes (red fluorescence) by a panel of HDAC inhibitors: significant increase in red fluorescence

## CC(C=CC(=O)NO)=CC(C)C(=O)c1ccc(N(C)C)cc1 (centres unmarked) [TSA, 7-[4-(dimethylamino)phenyl]-N-hydroxy-4,6-dimethyl-7-oxohepta-2,4-dienamide]
BE(2)-C cells [6]; TSA 75 nM, 24 h
  ROS generation: TSA-induced ROS generation
BE(2)-C cells [2]; BE(2)-C
  accumulation of acidic lysosomes (red fluorescence) by a panel of HDAC inhibitors: significant increase in red fluorescence

## O=C(CCCCCCC(=O)Nc1ccc([C@H]2O[C@@H](CSc3nc(-c4ccccc4)c(-c4ccccc4)o3)C[C@@H](c3ccc(CO)cc3)O2)cc1)NO [Tubacin]
BE(2)-C cells [2]; BE(2)-C
  accumulation of acidic lysosomes (red fluorescence) by a panel of HDAC inhibitors: did not increase the amount of red fluorescent cells

## CCCC(CCC)C(=O)O [VPA, valproic acid]
HDAC10 [7]
  IC50: > 10000 µM
BE(2)-C cells [2]; BE(2)-C
  accumulation of acidic lysosomes (red fluorescence) by a panel of HDAC inhibitors: did not increase the amount of red fluorescent cells

## O=C(CCCCCCC(=O)Nc1ccccc1)NO [Vorinostat (SAHA), N-hydroxy-N′-phenyl-octanediamide]
BE(2)-C cells [2]; BE(2)-C
  accumulation of acidic lysosomes (red fluorescence) by a panel of HDAC inhibitors: significant increase in red fluorescence

## COc1cccc2c1C(=O)c1c(O)c3c(c(O)c1C2=O)C[C@@](O)(C(=O)CO)C[C@@H]3O[C@H]1C[C@H](N)[C@H](O)[C@H](C)O1 [doxorubicin]
BE(2)-C cells [8]
  sensitivity towards doxorubicin treatment (cell death, % trypan blue positive): highest resistance
IMR32 cells
  sensitivity towards doxorubicin treatment (cell death, % trypan blue positive): highest sensitivity
BE(2)-C cells [9]
  autophagic flux, measurable by p62 degradation: enhanced autophagic flux

## CN1C(=O)C(Cc2c[nH]c3ccccc23)NC1=S (centres unmarked) [necrostatin]
BE(2)-C cells [3]; 6 d post-transfection, necrostatin 50 μM in combination with z-VAD 20 μM
  viability (metabolic activity) upon HDAC10 knockdown: completely rescue

## CC(NC(=O)C(NC(=O)OCc1ccccc1)C(C)C)C(=O)NC(CC(=O)O)C(=O)CF (stereo not drawn) [zVAD] (Cbz-Val-Ala-Asp-CH2F; configuration not given here)
BE(2)-C cells [1]
  effect on HDAC10-knockdown mediated apoptosis (caspase-3 like activity): abolished HDAC10-knockdown mediated induction of apoptosis
BE(2)-C cells [3]; 6 d post-transfection, z-VAD 20 μM on day 4 and 5
  viability (metabolic activity) upon HDAC10 knockdown: partly restored viability
